Reference: US10072020B1, “Isatin spiro compounds with antibacterial activities and a method of preparing the same” (SHAANXI UNIVERSITY OF SCIENCE AND TECHNOLOGY, priority 2018, dated 2018)
≈ marks a conversion by molar mass, not a printed value.

Key:
Assay in all cases: Antibacterial activity test, MIC by agar dilution
Assay type in all cases: cell-based
[1] = system: Escherichia coli ATCC 25922; details: ATCC25922, MH agar plate two-fold dilution, 25° C. for 18-24 hours, read-out: Minimum Inhibitory Concentrations
Protocol: (§1) Antibacterial Activity Test of the Compounds of the Invention
(§2) The compounds were tested for their antibacterial activities using the following standard strains: Escherichia coli ATCC 25922, Escherichia coli 10-1, and Escherichia coli 10-2.
(§3) Preparation of Escherichia coli strains and bacterial liquid: the test strains (Escherichia coli ATCC 25922, Escherichia coli 10-1, and Escherichia coli 10-2) stock solutions were seeded in LB solid Media Petri dishes and placed in a 37° C. incubator overnight. The next day, single colonies were picked from LB solid petri dishes and inoculated into 6-10 mL LB liquid medium and cultured with shaking at 150 rpm for 3 hours at 37° C. 100 μL of the liquid was evenly coated on an LB solid plate, and inverted in an incubator at 37° C. overnight. Viable cells in the logarithmic growth phase were collected after 16-18 hours, and sterile water was added to form a bacteria suspension with the number of bacteria being 106 CFu·mL^−1.
(§4) Preparation of compound-containing agar plate: MH agar was heated to dissolve and placed in 45-50° C. water bath to balance, the compounds were added at different concentrations (160, 300, 600 μg·mL^−1). The mixtures were mixed evenly and poured onto sterilization plates, placed into a sealed plastic bag at 2-8° C.
(§5) Determination of the minimum inhibitory concentration: the minimum inhibitory concentrations (MICs) of the test compounds on the test bacteria were determined by diluting the agar plate two-fold. Multi-point inoculation instrument was used to inoculate bacteria to the MH agar medium that contains the compounds, forming a plaque with a diameter of 5 to 8 mm. After the plates were incubated at 25° C. for 18-24 hours, the growth state of the bacteria was observed, and the minimum compound concentration for inhibiting the growth of the bacteria was the MIC.

Escherichia coli 10-2 = details: 102, MH agar plate two-fold dilution, 25° C. for 18-24 hours, read-out: Minimum Inhibitory Concentrations
Protocol: as §1, §2, §3, §4, §5

Escherichia coli 10-1 = details: 101, MH agar plate two-fold dilution, 25° C. for 18-24 hours, read-out: Minimum Inhibitory Concentrations
Protocol: as §1, §2, §3, §4, §5

Work on CN1C(=O)[C@@]2(OC=C2C=O)c2cc(Br)ccc21 [Compound 1, (R)-5-bromo-1-methyl-2-oxospiro[indoline-3,2′-oxete]-3′-carbaldehyde] yielded an MIC [1] of 300 µg/mL (≈ 1020 µM), an MIC (Escherichia coli 10-2) of 160 µg/mL (≈ 544 µM) and an MIC (Escherichia coli 10-1) of 160 µg/mL (≈ 544 µM).

In the case of CN1C(=O)[C@@]2(OC=C2C=O)c2cccc(Br)c21 [Compound 2, (R)-7-bromo-1-methyl-2-oxospiro[indoline-3,2′-oxete]-3′-carbaldehyde], the MIC [1] was 300 µg/mL (≈ 1020 µM), the MIC (Escherichia coli 10-2) was greater than 160 µg/mL and the MIC (Escherichia coli 10-1) was 160 µg/mL (≈ 544 µM).

In the case of CN1C(=O)[C@@]2(OC=C2C=O)c2cc(Cl)ccc21 [Compound 3, (R)-5-chloro-1-methyl-2-oxospiro[indoline-3,2′-oxete]-3′-carbaldehyde], the MIC [1] was 300 µg/mL (≈ 1200 µM), the MIC (Escherichia coli 10-2) was 300 µg/mL (≈ 1200 µM) and the MIC (Escherichia coli 10-1) was 160 µg/mL (≈ 641 µM).

Compound CN1C(=O)[C@@]2(OC=C2C=O)c2cccc(Cl)c21 [Compound 4, (R)-7-chloro-1-methyl-2-oxospiro[indoline-3,2′-oxete]-3′-carbaldehyde] has an MIC [1] greater than 600 µg/mL, an MIC (Escherichia coli 10-2) of 160 µg/mL (≈ 641 µM) and an MIC (Escherichia coli 10-1) of 300 µg/mL (≈ 1200 µM).

In the case of CN1C(=O)[C@@]2(OC(c3ccccc3)=C2C(=O)c2ccccc2)c2cc(Br)ccc21 [Compound 5, (R)-3′-benzoyl-5-bromo-1-methyl-4′-phenylspiro[indoline-3,2′-oxet]-2-one], the MIC [1] was 160 µg/mL (≈ 359 µM), the MIC (Escherichia coli 10-2) was 300 µg/mL (≈ 672 µM) and the MIC (Escherichia coli 10-1) was 300 µg/mL (≈ 672 µM).

For CN1C(=O)[C@@]2(OC(c3ccccc3)=C2C(=O)c2ccccc2)c2cccc(Br)c21 [Compound 6, (R)-3′-benzoyl-7-bromo-1-methyl-4′-phenylspiro[indoline-3,2′-oxet]-2-one], the MIC [1] was 300 µg/mL (≈ 672 µM), the MIC (Escherichia coli 10-2) was 300 µg/mL (≈ 672 µM) and the MIC (Escherichia coli 10-1) was greater than 600 µg/mL.

Compound CN1C(=O)[C@@]2(OC(c3ccccc3)=C2C(=O)c2ccccc2)c2cc(Cl)ccc21 [Compound 7, (R)-3′-benzoyl-5-chloro-1-methyl-4′-phenylspiro[indoline-3,2′-oxet]-2-one] has an MIC [1] of 300 µg/mL (≈ 747 µM), an MIC (Escherichia coli 10-2) of 300 µg/mL (≈ 747 µM) and an MIC (Escherichia coli 10-1) of 160 µg/mL (≈ 398 µM).

CN1C(=O)[C@@]2(OC(c3ccccc3)=C2C(=O)c2ccccc2)c2cccc(Cl)c21 [Compound 8, (R)-3′-benzoyl-7-chloro-1-methyl-4′-phenylspiro[indoline-3,2′-oxet]-2-one] was tested, and the MIC [1] was 160 µg/mL (≈ 398 µM), the MIC (Escherichia coli 10-2) was 300 µg/mL (≈ 747 µM) and the MIC (Escherichia coli 10-1) was 300 µg/mL (≈ 747 µM).

With CCN1C(=O)[C@@]2(OC=C2C(=O)c2ccccc2)c2cc(Br)ccc21 [Compound 9, (R)-3′-benzoyl-5-bromo-1-ethylspiro[indoline-3,2′-oxet]-2-one] the MIC [1] was 300 µg/mL (≈ 781 µM), the MIC (Escherichia coli 10-2) was 160 µg/mL (≈ 416 µM) and the MIC (Escherichia coli 10-1) was 300 µg/mL (≈ 781 µM).

Work on CCCN1C(=O)[C@@]2(OC(c3ccccc3)=C2C=O)c2cccc(Br)c21 [Compound 10, (R)-7-bromo-2-oxo-4′-phenyl-1-propylspiro[indoline-3,2′-oxete]-3′-carbaldehyde] yielded an MIC [1] of 300 µg/mL (≈ 753 µM), an MIC (Escherichia coli 10-2) greater than 600 µg/mL and an MIC (Escherichia coli 10-1) of 160 µg/mL (≈ 402 µM).

With CCCN1C(=O)[C@@]2(OC=C2C(=O)c2ccccc2)c2cc(Cl)ccc21 [Compound 11, (R)-3′-benzoyl-5-chloro-1-propylspiro[indoline-3,2′-oxet]-2-one] the MIC [1] was greater than 600 µg/mL, the MIC (Escherichia coli 10-2) was 160 µg/mL (≈ 452 µM) and the MIC (Escherichia coli 10-1) was 160 µg/mL (≈ 452 µM).

For CCN1C(=O)[C@@]2(OC(c3ccccc3)=C2C=O)c2cccc(Cl)c21 [Compound 12, (R)-7-chloro-1-ethyl-2-oxo-4′-phenylspiro[indoline-3,2′-oxete]-3′-carbaldehyde], the MIC [1] was 300 µg/mL (≈ 883 µM), the MIC (Escherichia coli 10-2) was 300 µg/mL (≈ 883 µM) and the MIC (Escherichia coli 10-1) was 160 µg/mL (≈ 471 µM).

With CCN1C(=O)[C@@]2(OC=C2C=O)c2cc(Br)ccc21 [Compound 13, (R)-5-bromo-1-ethyl-2-oxospiro[indoline-3,2′-oxete]-3′-carbaldehyde] the MIC [1] was 160 µg/mL (≈ 519 µM), the MIC (Escherichia coli 10-2) was 160 µg/mL (≈ 519 µM) and the MIC (Escherichia coli 10-1) was 300 µg/mL (≈ 974 µM).

With O=CC1=CO[C@@]12C(=O)N(Cc1ccccc1)c1c(Cl)cccc12 [Compound 14] the MIC [1] was 300 µg/mL (≈ 921 µM), the MIC (Escherichia coli 10-2) was 160 µg/mL (≈ 491 µM) and the MIC (Escherichia coli 10-1) was 160 µg/mL (≈ 491 µM).

O=C(C1=C(c2ccccc2)O[C@@]12C(=O)N(Cc1ccccc1)c1c(Br)cccc12)c1ccccc1 [Compound 15] showed an MIC [1] of 160 µg/mL (≈ 306 µM), an MIC (Escherichia coli 10-2) of 300 µg/mL (≈ 574 µM) and an MIC (Escherichia coli 10-1) of 160 µg/mL (≈ 306 µM).

Work on CCCN1C(=O)[C@@]2(OC(c3ccccc3)=C2C(=O)c2ccccc2)c2cc(Cl)ccc21 [Compound 16, (R)-3′-benzoyl-5-chloro-4′-phenyl-1-propylspiro[indoline-3,2′-oxet]-2-one] yielded an MIC [1] of 160 µg/mL (≈ 372 µM), an MIC (Escherichia coli 10-2) of 160 µg/mL (≈ 372 µM) and an MIC (Escherichia coli 10-1) of 300 µg/mL (≈ 698 µM).

O=C1Nc2ccccc2C1=O [isatin] was tested, and the MIC [1] was greater than 600 µg/mL, the MIC (Escherichia coli 10-2) was 160 µg/mL (≈ 1090 µM) and the MIC (Escherichia coli 10-1) was 300 µg/mL (≈ 2040 µM).
